Laboratory results from patent publication US10781224B2, “Bis(oxymethyl)phosphinic acid and biogenic metal salts thereof as regulators of plant growth and development” (priority 2016, dated 2020).

What was measured:
Format in all cases: in vivo
[1] = test system: spring wheat (Ekada-66 variety); experiment: Spring wheat seed treatment: germination rate and plant height (laboratory, Petri dishes); conditions: for Germination rate % 4th day / Germination rate % 8th day / Plant height: spring wheat
Procedure: (§1) Control—Soaking Seeds in Water;
(§2) Experimental versions—soaking seeds in BHMPA solutions and solutions of BHMPA Ca, Mg, Na, Co, Mn, Cu, and Zn salts at 1·10^−6-1·10^−12% concentrations (doses). The studies were conducted in laboratory in Petri dishes; seed bed—two layers of filter paper. 50 seeds soaked in water (control) and in the solutions of the tested compounds (experimental) were placed into each dish. Wheat, corn, and rice seeds were exposed for one hour.
(§3) Analysis was conducted according to the government standards GOST 12038-84 “Crop seeds. Technical conditions for determining the germination energy and germination rate”, GOST 12044-93 “Crop seeds. Methods for determining disease contamination.”
(§4) Seed germination energy and rate were calculated in percent as an arithmetic mean of the four experimental results (germination energy on the 4th day, wheat germination on the 8th day, rice and corn germination—on the 7th day). Germination was determined based on the germinating power indicators (length of the roots and sprouts and their wet and dry mass per 100 shoots).
(§5) The study of the effect of pre-sowing seed treatment with BHMPA was conducted on winter wheat (Kazan-500 variety) and spring wheat (Ekada-66 variety).

[2] = test system: spring wheat seeds: contamination by mold, alternaria, bacteriosis; experiment: Phytopathological properties (seed contamination) of treated spring wheat seeds
Procedure: as §2, §3, §5
The effect of the treatment with BHMPA on phytopathological properties of spring wheat seeds was examined and the results are presented in Table II. […] The biological activity in this case was 64.4%. In other samples, contamination of the seeds also remained lower than that of the control. Treatment of seeds with BHMPA solutions reduced their overall contamination.

[3] = test system: winter wheat (Kazan-500 variety); experiment: Winter wheat seed treatment with BHMPA: germination energy, germination rate, plant height, roots
Procedure: as §1, §2, §3, §4, §5

`O=P(O)(CO)CO` [BHMPA, bis-(hydroxymethyl)-phosphinic acid] was tested, and the “Germination rate % 4th day” value ([1]; 1·10^−7% solution) was 28.0%, the “Germination rate % 8th day” value ([1]; 1·10^−7% solution) was 70.0% and the Plant height ([1]; 1·10^−7% solution) was 14.1 cm. For the same compound, the “Germination rate % 4th day” value ([1]; 1·10^−9% solution) was 33.0%, the “Germination rate % 8th day” value ([1]; 1·10^−9% solution) was 81.5% and the Plant height ([1]; 1·10^−9% solution) was 14.3 cm. The “Germination rate % 4th day” value ([1]; 1·10^−12% solution) was 32.5%, the “Germination rate % 8th day” value ([1]; 1·10^−12% solution) was 81.3% and the Plant height ([1]; 1·10^−12% solution) was 14.4 cm. For the same compound, the “growth-regulating ability compared with Melaphen” value ([1]; wheat, Tables I-III, 1·10^−9%, 1·10^−11% and 1·10^−12%) was “lesser impact than that of the prototype Melaphen”, the Biological efficacy ([2]; 1·10^−7% solution) was 44.1% and the “Contamination by type: alternaria” value ([2]; 1·10^−7% solution) was 24%. The “Contamination by type: bacteriosis” value ([2]; 1·10^−7% solution) was 6%, the “Contamination by type: mold” value ([2]; 1·10^−7% solution) was 3% and the Overall contamination ([2]; 1·10^−7% solution) was 33.0%. The Biological efficacy ([2]; 1·10^−8% solution) was 42.4%, the “Contamination by type: alternaria” value ([2]; 1·10^−8% solution) was 26% and the “Contamination by type: bacteriosis” value ([2]; 1·10^−8% solution) was 6%. For the same compound, the “Contamination by type: mold” value ([2]; 1·10^−8% solution) was 2%, the Overall contamination ([2]; 1·10^−8% solution) was 34.0% and the Biological efficacy ([2]; 1·10^−9% solution) was 64.4%. The “Contamination by type: alternaria” value ([2]; 1·10^−9% solution) was 14%, the “Contamination by type: bacteriosis” value ([2]; 1·10^−9% solution) was 4% and the “Contamination by type: mold” value ([2]; 1·10^−9% solution) was 3%. For the same compound, the Overall contamination ([2]; 1·10^−9% solution) was 21.5%, the “overall seed contamination lower than that of the control by” value ([2]; 1·10^−9% solution, control 59%) was 38% and the Overall contamination ([2]; 1·10^−9% solution, listed as bis-(hydroxymethyl)-phosphinic acid) was 21.0%. The Biological efficacy ([2]; 1·10^−10% solution) was 61.0%, the “Contamination by type: alternaria” value ([2]; 1·10^−10% solution) was 16% and the “Contamination by type: bacteriosis” value ([2]; 1·10^−10% solution) was 4%. The “Contamination by type: mold” value ([2]; 1·10^−10% solution) was 3%, the Overall contamination ([2]; 1·10^−10% solution) was 23.0% and the Biological efficacy ([2]; 1·10^−11% solution) was 22.0%. The “Contamination by type: alternaria” value ([2]; 1·10^−11% solution) was 42%, the “Contamination by type: bacteriosis” value ([2]; 1·10^−11% solution) was 2% and the “Contamination by type: mold” value ([2]; 1·10^−11% solution) was 2%. The Overall contamination ([2]; 1·10^−11% solution) was 46.0%, the Biological efficacy ([2]; 1·10^−12% solution) was 44.1% and the “Contamination by type: alternaria” value ([2]; 1·10^−12% solution) was 28%. The “Contamination by type: bacteriosis” value ([2]; 1·10^−12% solution) was 3%, the “Contamination by type: mold” value ([2]; 1·10^−12% solution) was 2% and the Overall contamination ([2]; 1·10^−12% solution) was 33.0%. It also gave a Germination energy ([3]; 1·10^−7% solution) of 82.5%, a Germination rate ([3]; 1·10^−7% solution) of 84.0% and a Number of roots ([3]; 1·10^−7% solution) of 3.3. For the same compound, the Plant height ([3]; 1·10^−7% solution) was 11.3 cm, the Root length ([3]; 1·10^−7% solution) was 11.7 cm and the Germination energy ([3]; 1·10^−8% solution) was 86.0%. It also gave a Germination rate ([3]; 1·10^−8% solution) of 86.0%, a Number of roots ([3]; 1·10^−8% solution) of 3.1 and a Plant height ([3]; 1·10^−8% solution) of 12.5 cm. The Root length ([3]; 1·10^−8% solution) was 12.1 cm, the Germination energy ([3]; 1·10^−9% solution) was 87.4% and the Germination rate ([3]; 1·10^−9% solution) was 96.0%. It also gave a Number of roots ([3]; 1·10^−9% solution) of 3.4, a Plant height ([3]; 1·10^−9% solution) of 13.6 cm and a Root length ([3]; 1·10^−9% solution) of 12.3 cm. It also gave a Germination energy ([3]; 1·10^−10% solution) of 85.7%, a Germination rate ([3]; 1·10^−10% solution) of 90.0% and a Number of roots ([3]; 1·10^−10% solution) of 3.2. For the same compound, the Plant height ([3]; 1·10^−10% solution) was 11.2 cm, the Root length ([3]; 1·10^−10% solution) was 11.5 cm and the Germination energy ([3]; 1·10^−11% solution) was 83.9%. For the same compound, the Germination rate ([3]; 1·10^−11% solution) was 92.0%, the Number of roots ([3]; 1·10^−11% solution) was 3.3 and the Plant height ([3]; 1·10^−11% solution) was 12.4 cm. The Root length ([3]; 1·10^−11% solution) was 11.3 cm, the Germination energy ([3]; 1·10^−12% solution) was 90.0% and the Germination rate ([3]; 1·10^−12% solution) was 95.0%. The Number of roots ([3]; 1·10^−12% solution) was 3.3, the Plant height ([3]; 1·10^−12% solution) was 14.1 cm and the Root length ([3]; 1·10^−12% solution) was 11.9 cm.
